Laboratory results reported in US12377100B2 (GILEAD SCIENCES, INC., priority 2015, dated 2025).

Columns and labels:
TNFα = test: PBMC cytokine profiling assay, TNFα induction; type: cell-based; conditions: human PBMCs, 24 hours incubation
Summary of the method: (§1)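 Cryopreserved healthy-donor human PBMCs (100k cells/well) were exposed for 24 h at 37 °C to a 10-point half-log compound series in 0.5% final DMSO. Secreted cytokines in the conditioned medium were quantified by MSD electrochemiluminescence, with TNFα samples diluted 1:9. AC50 was fitted by non-linear regression on percent activation normalised to plate controls.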

IFNα = test: PBMC cytokine profiling assay, IFNα induction; type: cell-based; conditions: human PBMCs, 24 hours incubation
Summary of the method: as §1

IL12p40 = test: PBMC cytokine profiling assay, IL12-p40 induction; type: cell-based; conditions: human PBMCs, 24 hours incubation
Summary of the method: as §1

MRC-5 cells = test: Cytotoxicity assay, MRC-5 cells, Cell Titer Glo, 5 days; type: cell-based, human; conditions: MRC-5, five days incubation, intracellular ATP; read-out: CC50 MRC5 CTG 5D
Source text: (§2) To assess potential off-target toxicity of certain compounds disclosed herein, the in vitro cytotoxicity of those compounds was profiled using a panel of 5 cell lines with various tissue origins. Compound cytotoxicity was examined in hepatoma-derived Huh-7 and HepG2 cells, prostate carcinoma-derived PC-3 cells, lymphoma derived MT-4 cells and a normal diploid lung cell line MRC-5. HepG2 and PC-3 cells used were adapted to grow in glucose-free galactose-containing medium. These cells have a relatively higher sensitivity to inhibitors of mitochondrial oxidative phosphorylation compared to the same cells maintained in standard glucose-containing culture medium (Marroquin et al., Toxicol. Sci. 2007; 97 (2):539-47). Cell viability was determined by measuring intracellular ATP levels following five days of continuous incubation with test compounds.
(§3) The human hepatoma Huh-7 cell line was obtained from ReBLikon GmbH (Mainz, Germany) {20879}. The MT-4 cell line (HTLV-1 transformed, human T lymphoblastoid cells) was obtained from the NIH AIDS Reagent program (Bathesda, MD). The human hepatoblastoma cell line HepG2, human prostate carcinoma cell line PC-3, and normal fetal lung derived MRC-5 cells were obtained from the American Type Culture Collection (ATCC, Manassas, VA).
(§4) Huh-7 cells were maintained in Dulbecco's Modified Eagle Medium (DMEM) supplemented with 10% fetal bovine serum (FBS, Hyclone, Logan, UT), 1% non-essential amino acids (Gibco, Carlsbad, CA). PC-3 and HepG2 cells were adapted to grow in 0.2% galactose-containing, glucose-free Dulbecco's Modified Eagle Medium (DMEM) supplemented with 10% fetal bovine serum (FBS, Hyclone, Logan, UT), 1% non-essential amino acids (Gibco, Carlsbad, CA), 1% Pyruvate (Cellgro), 1% Glutamax (Invitrogen, Carlsbad, CA). Galactose-adapted cells were maintained in the same culture medium. MRC-5 cells were maintained in Eagle's Minimum Essential Medium (EMEM) supplemented with 10% fetal bovine serum (FBS, Hyclone, Logan, UT). MT-4 cells were maintained in RPMI-1640 supplemented with 10% fetal bovine serum (FBS, Hyclone, Logan, UT). All cell culture media were also supplemented with 100 Units/mL penicillin, 100 μg/mL streptomycin (Gibco).
(§5) Using a Biotek uFlow Workstation (Biotek, Winooski, VT), 1500 HepG2, 1500 PC-3, 500 Huh7 or 1500 MRC-5 cells in 90 μL of culture media were dispensed into each well of black polystyrene tissue culture-treated 384-well plates. Plated cells were incubated for 24 hours in an incubator at 37° C., 5% CO2 and 90% humidity. Compound serial dilutions were performed in 100% DMSO in 384-well polypropylene (high recovery) plates on a Biomek FX Workstation (Beckman Coulter, Fullerton, CA). After 3-fold serial dilutions, 0.4 μL of compounds were transferred into 384-well plates containing cells using a Velocity 11 system equipped with a Bravo 384-well pipettor. The DMSO concentration in the final assay plates was 0.44% (v/v). Cells were incubated with compound(s) for five days at 37° C. Puromycin (44 μM final concentration) and DMSO (0.44%, v/v) were used as a positive and negative controls, respectively
(§6) At the end of the incubation period the cytotoxicity assay was performed as follows: Media from 384-well cell culture plates were aspirated with a Biotek EL405 plate-washer (Biotek) and cells were washed with 100 μL PBS once. Twenty microliters of Cell Titer Glo (Promega, Madison, WI) was added to each well of the plates with a Biotek uFlow liquid dispenser. Plates were incubated for 15 minutes at room temperature before luminescence was measured with a Perkin Elmer Envision Plate Reader (Perkin Elmer, Waltham, MA).
(§7) CC50 values were defined as the compound concentration that caused a 50% decrease in luminescence signal, and were calculated by non-linear regression using Pipeline Pilot software by applying a four parameter fit equation (Accelrys, San Diego, CA). Individual CC50 values are listed as μM concentrations.

Huh-7 cells = test: Cytotoxicity assay, Huh-7 cells, Cell Titer Glo, 5 days; type: cell-based, human; conditions: Huh-7, five days incubation, intracellular ATP; read-out: CC50 HUH7 CTG 5D
Source text: as §2, §3, §4, §5, §6, §7

[1] = Cytotoxicity assay, galactose-adapted HepG2 cells, Cell Titer Glo, 5 days; type: cell-based; conditions: human, galactose-adapted HepG2, five days incubation, intracellular ATP, read-out: CC50 GALHEPG2 CTG 5D
Source text: as §2, §3, §4, §5, §6, §7

SMILES	AC50 (TNFα) [µM]	AC50 (IFNα) [µM]	AC50 (IL12p40) [µM]	CC50 (MRC-5 cells) [µM]	AC50 (TNFα; Homo sapiens, PBMC, 24 h) [µM]	CC50 (Huh-7 cells) [µM]	AC50 (IFNα; Homo sapiens, PBMC, 24 h) [µM]	AC50 (IL12p40; Homo sapiens, PBMC, 24 h) [µM]	CC50 at 5 days [1] [µM]
CCCC[C@@](C)(Nc1nc(N)nc2cc(F)cnc12)C(C)O (single isomer, unassigned) [Example 95]	0.15	> 50	0.15	44.4					
CCCC[C@](C)(CNC(C)=O)Nc1nc(N)nc2cccnc12 [Example 61]				44.4	0.02	44.4	42.1	0.02	44.4
CCCC[C@@H](Nc1nc(N)nc2cc(F)cnc12)C(O)CF (stereo partly drawn) [Example 102, (3R)-3-((2-amino-7-fluoropyrido[3,2-d]pyrimidin-4-yl)amino)-1-fluoroheptan-2-ol]				44.4	0.81	44.4	> 50	0.76	
CCCC[C@@H](CO)Nc1nc(N)nc2cc(F)cnc12 [Example 45, (S)-2-((2-amino-7-fluoropyrido[3,2-d]pyrimidin-4-yl)amino)hexan-1-ol]					1.6		8.3	1.3	
CCCCC(C)(CO)Nc1nc(N)nc2cc(F)cnc12 (stereo not drawn) [Example 63, 2-((2-amino-7-fluoropyrido[3,2-d]pyrimidin-4-yl)amino)-2-methylhexan-1-ol]					0.41		22.4	0.43	
CCC[C@@H](CO)Nc1nc(N)nc2cc(C#N)cnc12 [Example 22, (S)-2-amino-4-((1-hydroxypentan-2-yl)amino)pyrido[3,2-d]pyrimidine-7-carbonitrile]					> 50		35.9	> 50	
CCCC[C@@H](CO)Nc1nc(N)nc2ccccc12 [Example 48, (S)-2-((2-aminoquinazolin-4-yl)amino)hexan-1-ol]					0.85		0.57	0.71	
CCCC[C@@H](Nc1nc(N)nc2cccnc12)[C@@H](O)C(F)(F)F [Example 89, (2R,3R)-3-((2-aminopyrido[3,2-d]pyrimidin-4-yl)amino)-1,1,1-trifluoroheptan-2-ol]					2.2		> 50	1.7	
CCCC[C@H](CO)Nc1nc(N)nc2cc(Cl)cnc12 [Example 23C, (R)-2-((2-amino-7-chloropyrido[3,2-d]pyrimidin-4-yl)amino)hexan-1-ol]					24.7		> 50	25.7	
CCC[C@@H](CO)Nc1nc(N)nc2ccc(C)nc12 [Example 33, (S)-2-((2-amino-6-methylpyrido[3,2-d]pyrimidin-4-yl)amino)pentan-1-ol]					0.92		5.9	0.85	
CCC[C@H](CO)Nc1nc(N)nc2ccc(C)nc12 [Example 38C, (R)-2-((2-amino-6-methylpyrido[3,2-d]pyrimidin-4-yl)amino)pentan-1-ol]					> 50		> 50	> 50	
CCCCCNc1nc(N)nc2cccnc12 [Example 11, N^4-pentylpyrido[3,2-d]pyrimidine-2,4-diamine]					10.1		6.9	6	
CCCC[C@@H](Nc1nc(N)nc2cccnc12)C(O)CF (single isomer, unassigned) [Example 88]					0.4		35.6	0.37	
CCCC[C@H](CNC(C)=O)Nc1nc(N)nc2cccnc12 [Example 51, (R)—N-(2-((2-aminopyrido[3,2-d]pyrimidin-4-yl)amino)hexyl)acetamide]				44.4	0.37	44.4	> 200	0.33	44.4
CCCC[C@H](CO)Nc1nc(N)nc2cc(F)cnc12 [Example 44, (R)-2-((2-amino-7-fluoropyrido[3,2-d]pyrimidin-4-yl)amino)hexan-1-ol]					3		> 50	2.4	
CCCC[C@@H](CO)Nc1nc(N)nc2ccc(C)nc12 [Example 40C, (S)-2-((2-amino-6-methylpyrido[3,2-d]pyrimidin-4-yl)amino)hexan-1-ol]					0.94		2.4	0.87	
CCC[C@H](Nc1nc(N)nc2cccnc12)C(=O)NCC(C)(C)O [Example 35, (S)-2-((2-aminopyrido[3,2-d]pyrimidin-4-yl)amino)-N-(2-hydroxy-2-methylpropyl)pentanamide]					39.4		> 50	22.6	
CCC[C@H](Nc1nc(N)nc2cccnc12)C(F)(F)F [Example 28, (S)—N^4-(1,1,1-trifluoropentan-2-yl)pyrido[3,2-d]pyrimidine-2,4-diamine]					28.6		45	28.2	
CCC[C@@H](CO)Nc1nc(N)nc2cc(CC)cnc12 [Example 21, (S)-2-((2-amino-7-ethylpyrido[3,2-d]pyrimidin-4-yl)amino)pentan-1-ol]					3.1		4.8	2.3	
CCCC(C)Nc1nc(N)nc2cccnc12 (stereo not drawn) [Example 2B, N^4-(pentan-2-yl)pyrido[3,2-d]pyrimidine-2,4-diamine]					5.4		4.3	2.8	
CCC[C@H](CO)Nc1nc(N)nc2cccnc12 [Example 8, (R)-2-((2-aminopyrido[3,2-d]pyrimidin-4-yl)amino)pentan-1-ol]					20.2		> 50	19.4	
C=CCC[C@](C)(CO)Nc1nc(N)nc2cccnc12 [Example 83, (R)-2-((2-aminopyrido[3,2-d]pyrimidin-4-yl)amino)-2-methylhex-5-en-1-ol]					1.7		43.1	1.8	
CCCC[C@H](CO)Nc1nc(N)nc2ccccc12 [Example 47B, (R)-2-((2-aminoquinazolin-4-yl)amino)hexan-1-ol]					2.7		> 50	2	
CCCC[C@H](CO)Nc1nc(N)nc2ccc(C)nc12 [Example 39C, (R)-2-((2-amino-6-methylpyrido[3,2-d]pyrimidin-4-yl)amino)hexan-1-ol]					> 50		> 50	41.5	
CCCCC(Nc1nc(N)nc2cccnc12)C(C)O (stereo not drawn) [Example 104, 3-((2-aminopyrido[3,2-d]pyrimidin-4-yl)amino)heptan-2-ol]	2.1	4.2	1.9						
CCC[C@@H](CO)Nc1nc(N)nc2cc(C)cnc12 [Example 20, (S)-2-((2-amino-7-methylpyrido[3,2-d]pyrimidin-4-yl)amino)pentan-1-ol]					3.2		5.4	2.8	
